Literature values, collected in US12564552B2, “Oral product with a basic amine and an ion pairing agent” (NICOVENTURES TRADING LIMITED, priority 2021, dated 2026).

What was measured:
[1] = not given; remark: listed apart in the source
[2] = test system: human buccal tissue; settings: nicotine solution pH=6 vs pH 8.1, perfusion cell, Adrian et al.

Structure (SMILES) | solubility in water | solubility in fats and alcohols | chemical stability (isolated, isomerizes to trans-bixin (β-bixin)) | log Ka1 (pyridine ring nitrogen) ([1]; pyridine ring nitrogen) | log Ka2 (pyrrolidine ring nitrogen) ([1]; pyrrolidine ring nitrogen) | factor by which diffusion rate is reduced at pH 6 relative to pH 8.1 [2]
CC(/C=C/C=C(C)/C=C/C(=O)O)=C\C=C\C=C(C)\C=C\C=C(C)\C=C\C(=O)O (stereo in doubt) [norbixin, (2E,4E,6E,8E,10E,12E,14E,16E,18E)-4,8,13,17-tetramethylicosa-2,4,6,8,10,12,14,16,18-nonaenedioic acid] | water-soluble |  |  |  |  | 
COC(=O)/C=C/C(C)=C\C=C\C(C)=C\C=C\C=C(C)\C=C\C=C(C)\C=C\C(=O)O [bixin, (2E,4E,6E,8E,10E,12E,14E,16Z,18E)-20-methoxy-4,8,13,17-tetramethyl-20-oxoicosa-2,4,6,8,10,12,14,16,18-nonaenoic acid] | insoluble in water | soluble in fats and alcohols | chemically unstable when isolated |  |  | 
CN1CCCC1c1cccnc1 (stereo not shown) [nicotine] |  |  |  | 3.41 | 8.02 | ~7
